{
  "source": "patent US20240287139A1",
  "about": "“A NOVEL COMPOUND ACTING AGAINST A SELECT GROUP OF BACTERIA” (priority 2021, published 2024)",
  "key": {"[1]": {"system": "M. tuberculosis GyrA D94N mutant", "assay_type": "cell-based"}, "[2]": {"system": "M. tuberculosis bacA mutants (L469P, L470P and S577R; bacA deletion mutant)", "assay_type": "cell-based"}, "MtbGyrase GyrA mutants": {"system": "MtbGyrase GyrA mutants", "assay_type": "biochemical, M. tuberculosis"}, "[3]": {"system": "M. tuberculosis H37Rv mc^26020"}},
  "note": "“And” between values parts separate entries of the source, which are not always exact repeats. Equal values may be shown once. *1 amine or outer side, *2 acyl side, *3 side chain or, on linkers, in order; H or OH if unused. Where a SMILES comes first, the peptide text is derived from it. Bridges are numbered along the chain shown (N, C = ends). [ ]: non-standard residue; d: D form. The star is where a group is joined. ξ: configuration not given here. ξThr(3R)(O-yl) = C[C@@H](O[*:3])C(N[*:1])C(=O)[*:2]; βAsp = O=C(O)[C@H](CC(=O)[*:2])N[*:1]; His(π-Me) = Cn1cncc1C[C@H](N)C(=O)O; For = O=C*",
  "data": [
    {"smiles": "C[C@H]1OC(=O)C[C@@H](C(=O)O)NC(=O)[C@H](CO)NC(=O)[C@@H](CCCNC(=N)N)NC(=O)CNC(=O)[C@H](Cc2ccccc2)NC(=O)[C@@H](CO)NC(=O)C[C@@H](C(=O)O)NC(=O)[C@H](Cc2cncn2C)NC(=O)C1NC(=O)[C@@H](CCCNC(=N)N)NC(=O)[C@@H](NC(=O)[C@H](Cc1c[nH]c2ccccc12)NC=O)[C@@H](C)O", "note": "(stereo partly drawn) [compound of Formula IV] (For-WT[dR][ξThr(3R)(O-yl)][His(π-Me)][βAsp][dS]FG[dR]SD-OH; ester 4-12)", "values": [
      {"measurement": "MIC", "setting": "[1]", "result": 0.25, "unit": "µg/mL"},
      {"measurement": "MIC against bacA mutants", "setting": "[2]", "result": "8 to 16 µg/mL and 8 µg/mL"},
      {"measurement": "MIC against bacA mutants as multiple of wild-type MIC", "setting": "[2]", "result": "32-64 ×MIC and 32 ×MIC"},
      {"measurement": "drug-induced cleavage with MtbGyrAP353L and MtbGyrAA32V", "setting": "MtbGyrase GyrA mutants", "result": "relatively strong resistance"},
      {"measurement": "reduced cleavage compared to wildtype MtbGyrase", "setting": "MtbGyrase GyrA mutants", "result": "5 to 100", "unit": "fold"},
      {"measurement": "frequency of highly resistant mutants", "setting": "[3]", "result": "6.1×10^−9 to 1.7×10^−8"},
      {"measurement": "frequency of resistant mutants", "setting": "[3]", "result": "7.2×10^−6 to 1.6×10^−5"}
    ]}
  ]
}
